# Values quoted from earlier work, collected in US10702482B2, “Slow-release solid oral compositions” (GNOSIS SPA, priority 2013, dated 2020).
compound,measurement,value
"C[S+](CC[C@H](N)C(=O)O)C[C@H]1O[C@@H](n2cnc3c(N)ncnc32)[C@H](O)[C@@H]1O (stereo partly drawn) [SAMe, S-adenosyl-L-methionine]",oral bioavailability (in words),rather poor oral bioavailability
